Test results from ChEMBL document CHEMBL1201862, “PubChem BioAssay data set” (2004).
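Exposure lasted 48 hours, with cells grown in 96-well plates and compounds tested at five concentrations. GI50 is the concentration that inhibits growth by half.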 Calls of active or inactive are those of the source. Cut-off read from the data, not from the text of the source: active = GI50 up to about 1.1 µM and inactive = higher.

Legend:
Assay in all cases: growth of human tumour cells (NCI), 48 h
DMS-114 = tested on: DMS-114
LXFL 529 = tested on: LXFL 529
XF498 = tested on: XF498
SNB-78 = tested on: SNB-78
M19-MEL = tested on: M19-MEL
DLD-1 = tested on: DLD-1
RXF 631 = tested on: RXF 631
HOP-18 = tested on: HOP-18
DMS-273 = tested on: DMS-273

| Compound | GI50 (DMS-114) | GI50 (LXFL 529) | GI50 (XF498) | GI50 (SNB-78) | GI50 (M19-MEL) | GI50 (DLD-1) | GI50 (RXF 631) | GI50 (HOP-18) | GI50 (DMS-273) |
| --- | --- | --- | --- | --- | --- | --- | --- | --- | --- |
| COC(=O)c1cccc2cccc(C(=O)Nc3ccc(Cl)cc3)c12 | 14.8 µM (inactive) | 0.474 µM (active) | > 73.3 µM (inactive) | 56.1 µM (inactive) | 4.35 µM (inactive) | > 21.7 µM (inactive) | > 86.1 µM (inactive) | > 100 µM (inactive) | 0.729 µM (active) |
| O=S(=O)(/C=C/C(=C/c1ccccc1)S(=O)(=O)c1ccccc1)c1ccccc1 | 1.57 µM (inactive) | 1.7 µM (inactive) | 1.7 µM (inactive) |  |  |  | 1.07 µM (active) |  | 1.52 µM (inactive) |
| Cc1cc(NS(=O)(=O)c2ccc(Nc3c4ccccc4nc4c(C(=O)Nc5ccc(S(N)(=O)=O)cc5)cccc34)cc2)no1 | 28.5 µM (inactive) | 21.1 µM (inactive) | 20.9 µM (inactive) | 23.9 µM (inactive) | 25.1 µM (inactive) | > 100 µM (inactive) |  | > 100 µM (inactive) | > 100 µM (inactive) |
| Cc1cccc(C(C)(C)C)c1NC(=O)C(=O)Cc1nc2ccccc2s1 | > 100 µM (inactive) | > 100 µM (inactive) |  | > 100 µM (inactive) | > 100 µM (inactive) | > 100 µM (inactive) | > 100 µM (inactive) | > 100 µM (inactive) | > 100 µM (inactive) |
| CC(/C=C1\CCC(CN(C)C)C1=O)c1cccc(Br)c1 (configuration not stated) | 19.7 µM (inactive) | 5.62 µM (inactive) | 20.6 µM (inactive) | 16.4 µM (inactive) | 20.7 µM (inactive) | 9.57 µM (inactive) | 7.91 µM (inactive) | 18.7 µM (inactive) |  |
| C#CCN(N=O)C(=O)NCCCCC(NC(=O)OCc1ccccc1)C(=O)OCc1ccccc1 (configuration not stated) |  | 19.1 µM (inactive) | 29.9 µM (inactive) | 46.2 µM (inactive) | 23.3 µM (inactive) | 29 µM (inactive) |  | > 100 µM (inactive) | 84.3 µM (inactive) |
| Cc1cc(NS(=O)(=O)c2ccc(NC(=O)c3cccc4c(N)c5ccccc5nc34)cc2)no1 | 22.2 µM (inactive) | 32 µM (inactive) | 21.8 µM (inactive) | 27.5 µM (inactive) | 21.2 µM (inactive) | 30.6 µM (inactive) | 18.4 µM (inactive) |  | 19.2 µM (inactive) |
| CC1OC(n2cc(Cl)c(=O)[nH]c2=O)C=C(OC(=O)c2ccccc2)C1=O (configuration not stated) | > 100 µM (inactive) |  | > 100 µM (inactive) | > 100 µM (inactive) | > 100 µM (inactive) | > 100 µM (inactive) | > 100 µM (inactive) | > 100 µM (inactive) | > 100 µM (inactive) |
| O=C1CCCc2ccc([N+](=O)[O-])c(O)c21 | 66.1 µM (inactive) | > 100 µM (inactive) |  | > 100 µM (inactive) | > 100 µM (inactive) | > 100 µM (inactive) |  |  | > 100 µM (inactive) |
| Sc1nnc(/C=C/c2ccc(Cl)c(Cl)c2)[nH]1 | 0.0298 µM (active) |  | 30.9 µM (inactive) |  |  | > 100 µM (inactive) |  |  | > 100 µM (inactive) |
| Cc1noc2cccc(O)c12 | > 100 µM (inactive) | > 100 µM (inactive) | > 100 µM (inactive) | > 100 µM (inactive) | > 100 µM (inactive) | > 100 µM (inactive) |  | > 100 µM (inactive) | > 100 µM (inactive) |
| C[N+](C)(C)CC1CCCC/C1=N\OC(=O)c1ccccc1 (configuration not stated) | > 100 µM (inactive) | > 100 µM (inactive) |  | > 100 µM (inactive) | > 100 µM (inactive) | > 100 µM (inactive) | > 100 µM (inactive) | > 100 µM (inactive) | > 100 µM (inactive) |
| COc1nc(=O)cc(N)n1C1OC(CO)C(O)C1O (configuration not stated) | > 100 µM (inactive) | > 100 µM (inactive) |  | > 100 µM (inactive) | > 100 µM (inactive) | > 100 µM (inactive) |  |  | > 100 µM (inactive) |
| C=C(c1ccccc1N)[C@@]1(O)C[C@H](/C(=C\C)CO)C[C@@H]1NCc1ccccc1 | 17 µM (inactive) |  |  | 25.2 µM (inactive) | 23.6 µM (inactive) |  |  | 20.4 µM (inactive) | 28.6 µM (inactive) |
| CC(C)c1ccc(C2C3=C(N=C4SCC(=O)N42)C(=O)c2ccccc23)cc1 (configuration not stated) | 53.5 µM (inactive) | 52.4 µM (inactive) | 87.3 µM (inactive) |  | 83.4 µM (inactive) | 81.8 µM (inactive) | > 100 µM (inactive) |  | > 100 µM (inactive) |
| S=P(c1ccccc1)(c1ccccc1)C1(C2(P(=S)(c3ccccc3)c3ccccc3)CC2)CC1 | > 100 µM (inactive) | > 100 µM (inactive) | > 100 µM (inactive) | > 100 µM (inactive) | > 100 µM (inactive) | > 100 µM (inactive) | > 100 µM (inactive) |  | > 100 µM (inactive) |
| Cc1ccccc1NC(=O)C(=O)C(C#N)c1ccc(Cl)cc1 (configuration not stated) | 39.8 µM (inactive) | 51.4 µM (inactive) | 33.8 µM (inactive) | > 100 µM (inactive) |  | 41.8 µM (inactive) | 34.7 µM (inactive) | 47.8 µM (inactive) | 33 µM (inactive) |
| C/C(CC(=O)Nc1cccc(C)c1C)=N\NC(N)=S | 41.7 µM (inactive) | > 100 µM (inactive) | > 100 µM (inactive) | > 100 µM (inactive) | > 100 µM (inactive) | > 100 µM (inactive) | 91.2 µM (inactive) | > 100 µM (inactive) | > 100 µM (inactive) |
| NS(=O)(=O)c1cc2c(cc1Cl)NC(/C(=N/NC(=O)c1ccncc1)C1C(=O)NC(=O)NC1=O)=NS2(=O)=O | > 100 µM (inactive) | > 100 µM (inactive) |  | > 100 µM (inactive) | > 100 µM (inactive) | > 100 µM (inactive) | > 100 µM (inactive) |  | > 100 µM (inactive) |
| COC(=O)/C1=C/C2CC(/C=C(/c3ccccc3)C(=O)O1)C2 | 19 µM (inactive) |  | 22 µM (inactive) |  | 23.1 µM (inactive) | 22.8 µM (inactive) |  | 27.5 µM (inactive) | 21.5 µM (inactive) |
| c1ccc2c(c1)c1ccccc1c1n[se]nc21 | > 100 µM (inactive) | 21.8 µM (inactive) | 31.5 µM (inactive) | > 100 µM (inactive) |  | > 100 µM (inactive) | 89.7 µM (inactive) | < 0.01 µM (active) | > 100 µM (inactive) |
| O=C(CSc1nc(-c2ccccc2)c(-c2ccccc2)[nH]1)N/N=C/c1ccc(O)cc1 | 22.1 µM (inactive) | 30.5 µM (inactive) | 28.5 µM (inactive) | 37.9 µM (inactive) | 19.4 µM (inactive) | 36.7 µM (inactive) |  | 12.2 µM (inactive) | 18.3 µM (inactive) |
| NNC(=O)/C(=C/c1ccc(Cl)c(Cl)c1)NC(=O)c1ccccc1 | 61.8 µM (inactive) | > 100 µM (inactive) | > 100 µM (inactive) | > 100 µM (inactive) | > 100 µM (inactive) | > 100 µM (inactive) | > 100 µM (inactive) |  |  |
| O=C(NC(c1ccccc1)C(O)C(=O)OCc1ccc2c(c1)C(=O)c1ccccc1C2=O)c1ccccc1 (configuration not stated) | 12.6 µM (inactive) | 44.7 µM (inactive) | 16 µM (inactive) | 56.6 µM (inactive) | 53.6 µM (inactive) | 21.2 µM (inactive) | 30.5 µM (inactive) | 3.56 µM (inactive) | 18.6 µM (inactive) |
| NC1=C2C(Br)=CN([C@@H]3O[C@H](CO)[C@@H](O)[C@@H]3O)C2C(=O)N=N1 (some centres not stated) | 4.94 µM (inactive) | 8.47 µM (inactive) |  | 30.9 µM (inactive) | 15.5 µM (inactive) | 0.76 µM (active) | 0.516 µM (active) | 5.68 µM (inactive) | 1.97 µM (inactive) |
| CO[C@H]1C[C@](C)(O)Cc2cc3c(c(O)c21)C(=O)c1c(O)cc2c(c1C3=O)O[C@@H]1O[C@@]2(C)[C@H](O)[C@@H](N(C)C)[C@@H]1O | 0.456 µM (active) | 1.96 µM (inactive) | 0.147 µM (active) | 3.87 µM (inactive) | 1.11 µM (active) | 2.81 µM (inactive) | 0.902 µM (active) | 0.859 µM (active) | 0.215 µM (active) |
